Test results as given in patent US20240197760A1, “ACTIVATORS OF INTEGRATED STRESS RESPONSE PATHWAY FOR PROTECTION AGAINST FERROPTOSIS” (Burke Neurological Institute, priority 2021, published 2024).
“Also recorded” adds a separate entry of the source.

How the values were obtained:
[1] = system: MCAO mice; assay: Filament MCAO model of transient ischemic stroke, sensory and motor function; type: in vivo, mouse; conditions: 10 mg/Kg i.p. from 24 h after MCAO, every day for 4 weeks
Procedure: To assess the effect of 2-DG on the Bdnf gene expression, mice were injected with either saline or 2-DG (10 mg/Kg) intraperitoneally for 6 h and then mice were euthanized properly, and hippocampi were dissected out from mice brain. In order to assess functional improvement with 2-DG treatment after ischemic stroke, mice were injected with 2-DG (10 mg/Kg) intraperitoneally 24 h after induction of the stroke and then every day for four weeks. For assessing functional improvement with 2-DG treatment after hemorrhagic stroke, mice were injected with 2-DG (10 mg/Kg) intraperitoneally 24 h after induction of the stroke and then every day for three weeks. The ischemic stroke was induced using filament MCAO method as described before (Alim et al., 2019). In brief, all surgeries were conducted in sterile conditions. Male mice were anesthetized with isoflurane (5% induction, and 2% maintenance). A 2 cm incision was opened in the middle of the anterior neck. The right common carotid was temporarily ligated with 6-0 silk (Ethicon Inc.). Right unilateral MCAO was accomplished by inserting a Silicon rubber-coated monofilament (Doccol Corporation) into the internal carotid artery via the external carotid artery stump. Adequacy of MCAO was confirmed by monitoring cortical blood flow at the onset of the occlusion with a laser Doppler flowmetry probe affixed to the skull (Periflux System 5010; Perimed, Sweden). Animals were excluded if mean intra-ischemic laser Doppler flowmetry was >30% pre-ischemic baseline. […] The integrated sensorimotor function in both stimulation of vibrissae (sensory neglect) and rearing (motor response) was assessed through the corner turn test as described previously (Karuppagounder et al., 2016). […] The direction (left or right) in which the mouse turned around was recorded for each trial. […] The time from which the tape was applied to when the mouse successfully removed it was recorded for each paw. […] The latency to reach the ground were recorded. […]

[2] = system: ICH mice; assay: Collagenase-induced intracerebral hemorrhage (ICH), tape removal test; type: in vivo, mouse; conditions: 10 mg/Kg i.p. from 24 h after collagenase, every day for 3 weeks; from day 7 onwards (days 7 and 21 vs saline)
Procedure: To assess the effect of 2-DG on the Bdnf gene expression, mice were injected with either saline or 2-DG (10 mg/Kg) intraperitoneally for 6 h and then mice were euthanized properly, and hippocampi were dissected out from mice brain. In order to assess functional improvement with 2-DG treatment after ischemic stroke, mice were injected with 2-DG (10 mg/Kg) intraperitoneally 24 h after induction of the stroke and then every day for four weeks. For assessing functional improvement with 2-DG treatment after hemorrhagic stroke, mice were injected with 2-DG (10 mg/Kg) intraperitoneally 24 h after induction of the stroke and then every day for three weeks. ICH was induced as described before (Karuppagounder et al., 2016). Briefly, male C57BL/6 mice (8 to 10 weeks of age; Charles River) were anesthetized with isoflurane (2 to 5%) and placed on a stereotaxic frame. During the procedure, the animal's body temperature was maintained at 37° ° C. with a homeothermic blanket. […] of collagenase (0.075 IU; Sigma) was infused into the right striatum at a flow rate of […] with a nanomite syringe pump (Harvard Apparatus) and a Hamilton syringe. […] The time from which the tape was applied to when the mouse successfully removed it was recorded for each paw. […]

[3] = vs saline significant on days 21 and 28

OC[C@H]1OC(O)C[C@@H](O)[C@@H]1O (stereo partly drawn) [2-DG, (4R,5S,6R)-6-(hydroxymethyl)oxane-2,4,5-triol]
pole test after ischemic stroke ([1]; vs saline significant on day 21): significant improvement; also recorded: significant difference | corner test after ischemic stroke [1, 3]: significant improvement; also recorded: significant difference | tape removal test after ischemic stroke [1, 3]: significant improvement; also recorded: significant difference | tape removal test after hemorrhagic stroke [2]: significant improvement; also recorded: significant difference
